Source: the supplement of paper PMC11451515

How the values were obtained:
Conditions in all cases: 48 h
NOMO1 [1] = experiment: AUC of viability dose-response curve (% viability x log10 dose units); higher = less sensitive
Method in brief: (§1)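 Library compounds in DMSO were applied for 48 h at 37°C at 11 threefold doses (47 μM to 0.79 nM) to medium-adapted leukemia cells in 1536-well plates holding 500 or 1000 cells/well. Luminescence from CellTiter-Glo One was normalised plate by plate against DMSO and cell-free wells. Area under the curve came from trapezoidal integration of a log-logistic fit, after scaling curves that rose above full viability and discarding those that failed quality control. The fit had four parameters and used log10 doses.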

SEM cells [2] = experiment: as above
Method in brief: as §1

P12-Ichikawa [3] = experiment: as above
Method in brief: as §1

NOMO1 [4] = experiment: cell viability relative to DMSO control; higher = less cytotoxic
Method in brief: (§2)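 Three leukemia lines were tested: NOMO1 and SEM at 500 cells/well and P12-Ichikawa at 1000 cells/well. Each was adapted for at least four passages in each medium and seeded in 5 μl in 1536-well plates, and library compounds in DMSO were pin-dosed from 47 μM to 0.79 nM in 11 threefold steps. After 48 h at 37°C, CellTiter-Glo One luminescence was read. Viability is a percentage relative to DMSO wells on each plate, with cell-free wells as background.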

SEM cells [5] = experiment: as above
Method in brief: as §2

P12-Ichikawa [6] = experiment: as above
Method in brief: as §2

[7] = RPMI 5 mM glucose + 10% dialyzed FBS
[8] = HPLM + 10% dialyzed FBS, 0.000781 µM
[9] = HPLM + 10% dialyzed FBS, 0.00234 µM
[10] = HPLM + 10% dialyzed FBS, 0.00702 µM
[11] = HPLM + 10% dialyzed FBS, 0.0211 µM
[12] = HPLM + 10% dialyzed FBS, 0.0632 µM
[13] = HPLM + 10% dialyzed FBS, 0.19 µM
[14] = HPLM + 10% dialyzed FBS, 0.569 µM
[15] = HPLM + 10% dialyzed FBS, 1.71 µM
[16] = HPLM + 10% dialyzed FBS, 5.12 µM
[17] = HPLM + 10% dialyzed FBS, 15.4 µM
[18] = HPLM + 10% dialyzed FBS, 46.1 µM
[19] = RPMI 5 mM glucose + 10% FBS, 0.000781 µM
[20] = RPMI 5 mM glucose + 10% FBS, 0.00234 µM
[21] = RPMI 5 mM glucose + 10% FBS, 0.00702 µM
[22] = RPMI 5 mM glucose + 10% FBS, 0.0211 µM
[23] = RPMI 5 mM glucose + 10% FBS, 0.0632 µM
[24] = RPMI 5 mM glucose + 10% FBS, 0.19 µM
[25] = RPMI 5 mM glucose + 10% FBS, 0.569 µM
[26] = RPMI 5 mM glucose + 10% FBS, 1.71 µM
[27] = RPMI 5 mM glucose + 10% FBS, 5.12 µM
[28] = RPMI 5 mM glucose + 10% FBS, 15.4 µM
[29] = RPMI 5 mM glucose + 10% FBS, 46.1 µM
[30] = RPMI 5 mM glucose + 10% dialyzed FBS, 0.000781 µM
[31] = RPMI 5 mM glucose + 10% dialyzed FBS, 0.00234 µM
[32] = RPMI 5 mM glucose + 10% dialyzed FBS, 0.00702 µM
[33] = RPMI 5 mM glucose + 10% dialyzed FBS, 0.0211 µM
[34] = RPMI 5 mM glucose + 10% dialyzed FBS, 0.0632 µM
[35] = RPMI 5 mM glucose + 10% dialyzed FBS, 0.19 µM
[36] = RPMI 5 mM glucose + 10% dialyzed FBS, 0.569 µM
[37] = RPMI 5 mM glucose + 10% dialyzed FBS, 1.71 µM
[38] = RPMI 5 mM glucose + 10% dialyzed FBS, 5.12 µM
[39] = RPMI 5 mM glucose + 10% dialyzed FBS, 15.4 µM
[40] = RPMI 5 mM glucose + 10% dialyzed FBS, 46.1 µM

In the case of COC(=O)N1CCN(Cc2cccc(NC(=O)Nc3ccc(C)nc3)c2F)CC1, the “AUC of viability dose-response curve” value (NOMO1 [1]; HPLM + 10% dialyzed FBS) is reported as 418, the “AUC of viability dose-response curve” value (NOMO1 [1]; RPMI 5 mM glucose + 10% FBS) is reported as 434 and the “AUC of viability dose-response curve” value (NOMO1 [1]; [7]) is reported as 434. For the same compound, the “AUC of viability dose-response curve” value (SEM cells [2]; HPLM + 10% dialyzed FBS) was 470, the “AUC of viability dose-response curve” value (SEM cells [2]; RPMI 5 mM glucose + 10% FBS) was 464 and the “AUC of viability dose-response curve” value (SEM cells [2]; [7]) was 448. The “AUC of viability dose-response curve” value (P12-Ichikawa [3]; HPLM + 10% dialyzed FBS) was 458, the “AUC of viability dose-response curve” value (P12-Ichikawa [3]; RPMI 5 mM glucose + 10% FBS) was 434 and the “AUC of viability dose-response curve” value (P12-Ichikawa [3]; [7]) was 408. The cell viability (NOMO1 [4]; [8]) was 115%, the cell viability (NOMO1 [4]; [9]) was 111% and the cell viability (NOMO1 [4]; [10]) was 111%. For the same compound, the cell viability (NOMO1 [4]; [11]) was 104%, the cell viability (NOMO1 [4]; [12]) was 104% and the cell viability (NOMO1 [4]; [13]) was 100%. For the same compound, the cell viability (NOMO1 [4]; [14]) was 100%, the cell viability (NOMO1 [4]; [15]) was 101% and the cell viability (NOMO1 [4]; [16]) was 102%. The cell viability (NOMO1 [4]; [17]) was 82.4%, the cell viability (NOMO1 [4]; [18]) was 81.9% and the cell viability (NOMO1 [4]; [19]) was 98.5%. It also gave a cell viability (NOMO1 [4]; [20]) of 98.8%, a cell viability (NOMO1 [4]; [21]) of 95.2% and a cell viability (NOMO1 [4]; [22]) of 98.8%. For the same compound, the cell viability (NOMO1 [4]; [23]) was 95.7%, the cell viability (NOMO1 [4]; [24]) was 85.7% and the cell viability (NOMO1 [4]; [25]) was 103%. It also gave a cell viability (NOMO1 [4]; [26]) of 84.2%, a cell viability (NOMO1 [4]; [27]) of 84.1% and a cell viability (NOMO1 [4]; [28]) of 77.2%. It also gave a cell viability (NOMO1 [4]; [29]) of 77.6%, a cell viability (NOMO1 [4]; [30]) of 91.9% and a cell viability (NOMO1 [4]; [31]) of 92.4%. The cell viability (NOMO1 [4]; [32]) was 105%, the cell viability (NOMO1 [4]; [33]) was 104% and the cell viability (NOMO1 [4]; [34]) was 99.6%. The cell viability (NOMO1 [4]; [35]) was 93.5%, the cell viability (NOMO1 [4]; [36]) was 85.6% and the cell viability (NOMO1 [4]; [37]) was 84%. It also gave a cell viability (NOMO1 [4]; [38]) of 78.1%, a cell viability (NOMO1 [4]; [39]) of 83.7% and a cell viability (NOMO1 [4]; [40]) of 81.5%. The cell viability (SEM cells [5]; [8]) was 96.1%, the cell viability (SEM cells [5]; [9]) was 95.2% and the cell viability (SEM cells [5]; [10]) was 105%. It also gave a cell viability (SEM cells [5]; [11]) of 108%, a cell viability (SEM cells [5]; [12]) of 99.2% and a cell viability (SEM cells [5]; [13]) of 105%. It also gave a cell viability (SEM cells [5]; [14]) of 86.7%, a cell viability (SEM cells [5]; [15]) of 100% and a cell viability (SEM cells [5]; [16]) of 100%. The cell viability (SEM cells [5]; [17]) was 102%, the cell viability (SEM cells [5]; [18]) was 73.7% and the cell viability (SEM cells [5]; [19]) was 122%. It also gave a cell viability (SEM cells [5]; [20]) of 120%, a cell viability (SEM cells [5]; [21]) of 120% and a cell viability (SEM cells [5]; [22]) of 116%. It also gave a cell viability (SEM cells [5]; [23]) of 119%, a cell viability (SEM cells [5]; [24]) of 124% and a cell viability (SEM cells [5]; [25]) of 124%. For the same compound, the cell viability (SEM cells [5]; [26]) was 114%, the cell viability (SEM cells [5]; [27]) was 116% and the cell viability (SEM cells [5]; [28]) was 108%. It also gave a cell viability (SEM cells [5]; [29]) of 96%, a cell viability (SEM cells [5]; [30]) of 90.3% and a cell viability (SEM cells [5]; [31]) of 107%. The cell viability (SEM cells [5]; [32]) was 109%, the cell viability (SEM cells [5]; [33]) was 106% and the cell viability (SEM cells [5]; [34]) was 94.7%. For the same compound, the cell viability (SEM cells [5]; [35]) was 112%, the cell viability (SEM cells [5]; [36]) was 94.6% and the cell viability (SEM cells [5]; [37]) was 90.1%. The cell viability (SEM cells [5]; [38]) was 90.7%, the cell viability (SEM cells [5]; [39]) was 86.4% and the cell viability (SEM cells [5]; [40]) was 65.3%. For the same compound, the cell viability (P12-Ichikawa [6]; [8]) was 94.8%, the cell viability (P12-Ichikawa [6]; [9]) was 102% and the cell viability (P12-Ichikawa [6]; [10]) was 103%. It also gave a cell viability (P12-Ichikawa [6]; [11]) of 98.7%, a cell viability (P12-Ichikawa [6]; [12]) of 102% and a cell viability (P12-Ichikawa [6]; [13]) of 94.9%. It also gave a cell viability (P12-Ichikawa [6]; [14]) of 97.7%, a cell viability (P12-Ichikawa [6]; [15]) of 94.1% and a cell viability (P12-Ichikawa [6]; [16]) of 91%. For the same compound, the cell viability (P12-Ichikawa [6]; [17]) was 88.7%, the cell viability (P12-Ichikawa [6]; [18]) was 84.8% and the cell viability (P12-Ichikawa [6]; [19]) was 96.6%. It also gave a cell viability (P12-Ichikawa [6]; [20]) of 98.7%, a cell viability (P12-Ichikawa [6]; [21]) of 95.8% and a cell viability (P12-Ichikawa [6]; [22]) of 104%. It also gave a cell viability (P12-Ichikawa [6]; [23]) of 98.7%, a cell viability (P12-Ichikawa [6]; [24]) of 95.2% and a cell viability (P12-Ichikawa [6]; [25]) of 82.2%. The cell viability (P12-Ichikawa [6]; [26]) was 81.4%, the cell viability (P12-Ichikawa [6]; [27]) was 85.9% and the cell viability (P12-Ichikawa [6]; [28]) was 87.6%. The cell viability (P12-Ichikawa [6]; [29]) was 74.4%, the cell viability (P12-Ichikawa [6]; [30]) was 92.8% and the cell viability (P12-Ichikawa [6]; [31]) was 96%. The cell viability (P12-Ichikawa [6]; [32]) was 87.1%, the cell viability (P12-Ichikawa [6]; [33]) was 93.7% and the cell viability (P12-Ichikawa [6]; [34]) was 89.7%. The cell viability (P12-Ichikawa [6]; [35]) was 84.5%, the cell viability (P12-Ichikawa [6]; [36]) was 84.5% and the cell viability (P12-Ichikawa [6]; [37]) was 78.2%. For the same compound, the cell viability (P12-Ichikawa [6]; [38]) was 81.2%, the cell viability (P12-Ichikawa [6]; [39]) was 81.3% and the cell viability (P12-Ichikawa [6]; [40]) was 69%.
